We go through six compounds from US20080125432A1 (Devgen NV, priority 2004, published 2008).

With `Cc1nc(NC(=O)c2ccc(C#N)cc2)sc1C(=O)N[C@H]1CCC[C@@H]1OCc1ccccc1` [Compound 181, 2-(4-cyano-benzoylamino)-4-methyl-thiazole-5-carboxylic acid ((1S,2S)-2-benzyloxycyclopent-1-yl) amide], the melting point – broadly, the temperature, or range, at which the solid turns liquid – was in the range of 177.2 to 181.4 °C.
In turn, `COc1ccccc1Nc1ncc(C(=O)NCc2ccc(F)c(C(F)(F)F)c2)[nH]1` [Compound 226, 2-(2-methoxy-phenylamino)-3H-imidazole-4-carboxylic acid 4-fluoro-3-trifluoromethyl-benzylamide] yielded a melting point of 227.9 to 230 °C.
For `COc1ccccc1Nc1nc(C)c(C(=O)Cc2ccccc2)s1` [Compound 79, 1-[2-(2-methoxy-phenylamino)-4-methyl-thiazol-5-yl]-2-phenyl-ethanone] the value was 131.7 to 140.6 °C; for `COc1ccc(CNC(=O)c2cnc(Nc3ccccc3OC)[nH]2)c(OC)c1` [Compound 225, 2-(2-methoxy-phenylamino)-3H-imidazole-4-carboxylic acid 2,4-dimethoxy-benzylamide], 134.1 to 136.2 °C; for `Cc1nc(Nc2ccc(Cl)cc2)sc1C(=O)NNc1ccc([N+](=O)[O-])cc1[N+](=O)[O-]`, 138 to 164.7 °C.
On to `Cc1nc(NC(=O)c2ccc(C(N)=O)cc2)sc1C(=O)N[C@H]1CCC[C@@H]1OCc1ccccc1` [Compound 213, N-[5-((1S,2S)-2-benzyloxy-cyclopentylcarbamoyl)-4-methyl-thiazol-2-yl]-terephthalamide], for which the melting point is 213.8 to 218.9 °C.
